Experimental data taken from patent US20190231688A1, “METHOD OF ADMINISTERING EMULSION FORMULATIONS OF AN NK-1 RECEPTOR ANTAGONIST” (Heron Therapeutics, Inc., priority 2018, published 2019).

Experiment: Pharmacokinetics of aprepitant emulsion versus fosaprepitant solution, intravenous
Format: in vivo, male Sprague-Dawley rats
Details: rat, 14 mg/kg aprepitant equivalent
Protocol: The pharmacokinetics of an aprepitant emulsion prepared according to Example 1 was determined. Two groups of six male Sprague-Dawley rats each were injected intravenously with, respectively, fosaprepitant in solution or aprepitant emulsion prepared according to Example 1. All drugs were administered at an effective concentration equivalent to 14 mg/kg aprepitant. Blood from all rats was collected at the appropriate time intervals and processed to plasma by centrifugation. Plasma samples were analyzed by LC-MS/MS for aprepitant and fosaprepitant, as appropriate. A plasma concentration versus time curve of aprepitant for the emulsion described in Example 1 and for fosaprepitant is presented in FIG. 2 (fosaprepitant in solution, •; aprepitant emulsion, ▴). The curves indicate the initial aprepitant level reached immediately after injection of the aprepitant emulsion was almost 3 times higher than the initial aprepitant level reached immediately after injection of the fosaprepitant solution.

Structure (SMILES): C[C@@H](O[C@H]1OCCN(Cc2nc(O)n(P(=O)(O)O)n2)[C@H]1c1ccc(F)cc1)c1cc(C(F)(F)F)cc(C(F)(F)F)c1 [fosaprepitant]
- Conversion of fosaprepitant to aprepitant: delay in the conversion of fosaprepitant to aprepitant
